Values after ≈ are worked out from the molar mass of the structure shown.

Series [1] concerns the target T1, Human immunodeficiency virus type 1 integrase (Human immunodeficiency virus 1, UniProt Q7ZJM1). Kind of series: Inhibition of HIV-1 integrase.
The subject of series [2] is Influenza A virus. Briefly: Antiviral activity against Influenza virus […] (A/California/07/2009 pdm09) infected in human Calu-3 cells assessed as viral RNA measured after 3 days by RT-PCR assay. The settings on record: Calu-3, 72 h. The series is classed as functional, organism-based.
For series [3], the system named is Human immunodeficiency virus 1. Briefly: Antiviral activity against HIV-1 infected in human MT4 cells assessed as reduction in viral replication. As to conditions: Human immunodeficiency virus 1, MT4. Format: functional, organism-based.
Series [4] can be described thus: Inhibition of Influenza A virus A/California/04/2009 (H1N1) domain of PA endonuclease expressed in Escherichia coli BL21 (DE3) cells.
The nature of series [5]: Cytotoxicity against African green monkey Vero cells assessed as reduction in cell viability measured after 72 hrs by MTT assay. Format: toxicity, cell-based. As to conditions: chlorocebus sabaeus.
A short description of series [6]: Inhibition of Zika virus NS5 RNA dependent RNA polymerase.
Series [7] has as its system Sindbis virus. Briefly: Antiviral activity against Sindbis virus infected in African green monkey Vero cells assessed as reduction in virus induced cytopathic effect. Format: functional, organism-based. (Protection from cytopathic effect is a common read-out in antiviral testing.)
Series [8] deals with SARS-CoV-2. Format: functional, organism-based, Vero E6. As to conditions: Severe acute respiratory syndrome coronavirus 2, Vero C1008.
The subject of series [9] is Potato virus Y. Kind of series: Antiviral activity against Potato Virus Y. Format: functional, organism-based.
Series [10] has as its system Human immunodeficiency virus 1. Briefly: Antiviral activity against HIV-1 IIIB infected in human C8166 cells assessed as reduction in viral replication. Format: functional, organism-based. The settings on record: Human immunodeficiency virus 1, IIIB.
Series [11] can be described thus: Cytotoxicity against African green monkey Vero E6 cells assessed as reduction in cell viability measured for 3 days by CCK-8 assay. The series is classed as toxicity, cell-based. As to conditions: chlorocebus sabaeus, Vero E6 cells (Vero C1008); time 3 day. (In general: Tetrazolium assays rely on reduction of a dye to a coloured formazan, in cell work by metabolically active cells.)

The subject of series [12] is Respiratory syncytial virus. Kind of series: Antiviral activity against RSV-A2 infected in human HEp-2 cells incubated for 4 days by Cell Titer Glo assay. Format: functional, organism-based. The settings on record: A2, HEp-2, 96 h. A general note: In ATP-based viability assays light output follows the ATP content of the culture.
Series [13] concerns SARS-CoV-2. The series is classed as functional, organism-based. As to conditions: Severe acute respiratory syndrome coronavirus 2, Wuhan-Hu-1, Vero C1008.
Series [14] concerns SARS-CoV-2. Format: functional, organism-based. As to conditions: Severe acute respiratory syndrome coronavirus 2, Wuhan-Hu-1, Vero C1008. This is another data set of the same source.
The subject of series [15] is C8166. Kind of series: Cytotoxicity against human C8166 cells assessed as reduction in cell viability incubated for 3 days by MTT assay. As to conditions: C8166, 72 h, time 3 day. The series is classed as functional.
Series [16] can be described thus: Inhibition of Influenza A virus H5N1 neuraminidase.
The test system of series [17] is Zika virus. Kind of series: Antiviral activity against Zika virus infected in African green monkey Vero cells assessed as reduction in virus induced cell death. Format: functional, organism-based.
For series [18], the target named is T1, Human immunodeficiency virus type 1 integrase. Briefly: Inhibition of recombinant HIV-1 integrase by strand transfer activity.
Series [19] has as its system Human respirovirus 1. Briefly: Antiviral activity against Human parainfluenza virus 1 infected in Vero cells assessed as reduction in viral replication at 10 ug/ml relative to control. Format: functional. Details: scale not given: the % may be the effect or the level left. As to conditions: dose 10 µg/ml.
Series [20] relates to Tobacco mosaic virus. Kind of series: Antiviral activity against Tobacco mosaic virus. Format: functional, organism-based.
Series [21] can be described thus: Inhibition of N-terminal SARS-CoV-2 Main protease using ESATLQSGLRKAK-QXL-NH2 as substrate incubated for 60 mins by FRET assay. Set-up: species or system Severe acute respiratory syndrome coronavirus 2.
Series [22] deals with SARS-CoV-2. The series is classed as functional, organism-based, Vero E6. The settings on record: Severe acute respiratory syndrome coronavirus 2, Vero C1008, 48 h.
The test system of series [23] is Respiratory syncytial virus. Briefly: Antiviral activity against Respiratory syncytial virus. Format: functional, organism-based. The settings on record: human respiratory syncytial virus.
Series [24] has as its system Vesicular stomatitis virus. Briefly: Antiviral activity against Vesicular stomatitis virus. Format: functional, organism-based.
Series [25] relates to Human immunodeficiency virus 1. Briefly: Antiviral activity against wild type HIV-1 NL4-3 infected in human MT4 cells assessed as reduction in viral replication. The series is classed as functional, organism-based. As to conditions: Human immunodeficiency virus 1, NL4-3, MT4.
The subject of series [26] is SARS-CoV-2. Format: functional, organism-based, Vero E6. As to conditions: Severe acute respiratory syndrome coronavirus 2, Vero C1008, 48 h. The source holds these as a separate data set.
Series [27] has as its system Venezuelan equine encephalitis virus. Briefly: Antiviral activity against VEEV TC-83 infected in human U-87 MG cells assessed as reduction in viral replication. Format: functional, organism-based. The settings on record: TC-83, U-87 MG.
Series [28] deals with Respiratory syncytial virus. Briefly: Antiviral activity against RSV-A infected in human A549 cells at 0.01 MOI assessed as inhibition of virus induced cytopathic effect […] by MTT assay. The series is classed as functional, organism-based.
A short description of series [29]: Toxicity in African green monkey Vero cells assessed as reduction in cell viability incubated for 3 days by MTT assay. Format: cell-based. The settings on record: chlorocebus sabaeus, time 3 day, read-out: TC50.
Series [30] relates to Human alphaherpesvirus 2. Briefly: Antiviral activity against HSV-2 infected in African green monkey Vero cells assessed as reduction in virus-induced cytopathic effect incubated for 3 days by MTT assay. Format: functional, organism-based. The settings on record: Human alphaherpesvirus 2, Vero, 72 h.

T1 sequence (Q7ZJM1 whole entry): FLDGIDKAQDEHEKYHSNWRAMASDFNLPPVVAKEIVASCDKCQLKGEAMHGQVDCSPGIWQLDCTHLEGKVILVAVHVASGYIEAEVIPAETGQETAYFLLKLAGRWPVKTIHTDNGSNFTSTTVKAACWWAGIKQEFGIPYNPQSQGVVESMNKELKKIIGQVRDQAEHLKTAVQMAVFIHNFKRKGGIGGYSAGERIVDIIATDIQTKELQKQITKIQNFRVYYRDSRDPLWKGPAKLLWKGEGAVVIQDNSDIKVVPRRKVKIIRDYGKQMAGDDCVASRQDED

A word on the IC50: it is the concentration needed to halve the response being measured. By EC50 is commonly meant the concentration needed to bring the measured effect to its halfway point. `O=C1c2c(ccc(O)c2O)CN1Cc1ccc(O)cc1`: the IC50 in [1] and in series [4] was 0.0075 µM each time. Further, the 50% effective concentration (EC50) in [2] and in series [3] was approximately 4 µM each time.
For `COc1ccc([C@H]2N(Nc3ccccc3)C(=O)C3Cc4ccccc4N32)cc1O[Si](C)(C)C(C)(C)C` (mixture of isomers), the CC50 at 72 h in series [5] is more than 100 µM. Moreover, the midpoint of inhibition in series [6], the IC50, lay at 10.7 µM.
As for `O=C(NN1C(=O)CSC12CCCCC2)c1[nH]c2ccc(Cl)cc2c1-c1ccccc1`, the concentration for a half-maximal effect (EC50) in series [7] turned out to be 1.9 µM.
On the same count and under the same terms, the value for `CN1C(=O)/C(=N\NC(=S)Nc2ccc(S(N)(=O)=O)cc2)c2cc(Br)ccc21` was more than 2 µM.
Regarding `CCS(=O)(=O)N(c1ccc(C(=O)/C=C2/C(=O)Nc3ccccc32)cc1)S(=O)(=O)CC`, the IC50 in [8] amounted to 3.42 µM.
The compound `C#CCCn1ccc2c(C3=N[C@@H](C(C)C)CO3)cccc21` had an EC50 in [9] of 256 µg/mL (≈ 913 µM).
Take `CCc1ccc(S(=O)(=O)n2cc(C(=O)CN3CCOCC3)c3ccc(C)cc32)cc1`: the EC50 in series [10] was found to be 9.42 µM.
Take `O=C(Oc1cncc(Cl)c1)c1cccc2c1CCN2`: the CC50 at 72 h in series [11] is more than 100 µM.
For the compound `O=C1C(=O)N(Cc2cccc3ccccc23)c2ccc(Br)cc21`, the EC50 in [12] and in series [13] was 6.8 µM each time.
As for `O=C(NCCc1ccc(N2CCCC2)cc1)c1[nH]c2ccc(Cl)cc2c1CO`, in series [14], the IC50 amounted to 3.42 µM.
For `CCc1ccc(S(=O)(=O)n2cc(C(=O)CCc3nnc(-c4ccccc4)o3)c3ccc(C)cc32)cc1`, the CC50 in [15] was more than 469 µM. Also, the EC50 in [10] was 4.62 µM.
In the case of `CN1C(=O)/C(=N\NC(=S)Nc2ccc(S(N)(=O)=O)cc2)c2cc(F)ccc21`, in series [7], the EC50 was more than 4 µM.
In [9], `CCOc1ccc(C2=NN(C(N)=S)C(C3CN(Cc4ccc(C(F)(F)F)cc4)c4ccccc43)C2)cc1F` (configuration not stated) registered an EC50 of 202 µg/mL (≈ 372 µM).
Consider `O=C(NCC1CCNCC1)c1c[nH]c2cc(-c3ccoc3)c(-c3ccoc3)cc12`, for which the 50% inhibitory concentration (IC50) in [14] is 3.8 µM.
In the case of `CC1=NCCc2c1[nH]c1ccccc21`, in series [16], the IC50 turned out to be 0.023 µg/mL (≈ 0.125 µM).
Still for that read-out and setting: the value for `O=C1C[C@@H]2OCC=C3CN4CC[C@]56c7ccccc7N1[C@H]5[C@H]2[C@H]3C[C@H]46.O=S(=O)(O)O` was 11.85 µg/mL.
For `COc1cccc2[nH]c(C(=O)N[C@@H](CC(C)C)C(=O)N[C@@H](C[C@@H]3CCNC3=O)C(=O)c3nc4ccccc4s3)cc12`, the CC50 at 72 h in series [11] was more than 100 µM.
On to `O=C(NCC1CCNCC1)c1cc2ccc(-c3ccoc3)cc2[nH]1`, for which, in series [17], the IC50 turned out to be 0.37 µM.
In the case of `COc1ccc([C@H]2N(Nc3ccc([N+](=O)[O-])cc3)C(=O)C3Cc4ccccc4N32)cc1O[Si](C)(C)C(C)(C)C` (mixture of isomers), the CC50 at 72 h in [5] was more than 100 µM. In addition, in series [6], inhibition was half-maximal at 9.89 µM (IC50).
On to `Cc1ccc(S(=O)(=O)n2cc(C(=O)/C=C3\OC(C)(C)OC3=O)c3cc(Br)ccc32)cc1`, for which the IC50 in series [18] is 5.7 µM.
Consider `CN1C(=O)/C(=N\NC(=S)Nc2ccc(S(N)(=O)=O)cc2)c2cc(OC(F)(F)F)ccc21`, for which the EC50 in series [7] is more than 20 µM.
In the case of `CC1CCCC2(C1)SCCN2NC(=O)c1[nH]c2ccc(S(N)(=O)=O)cc2c1-c1ccccc1` (configuration not stated), in series [19], the Activity is 95.46%.
`CCOC(=O)c1c(C)n(C)c2ccc(OCCCOc3ccc(C(=O)/C=C/c4ccc(C)cc4)cc3)cc12` yielded an EC50 in series [20] of 107 µg/mL (≈ 210 µM).
Take `CCCCCCCCCCCCCCCCCc1nnc(SCC(O)CO)n1/N=C/c1cn(Cc2ccccc2)c2ccccc12` (configuration not stated): the IC50 worked out at 8.93 µM in [21] and 112 µM in series [22].
Regarding `O=C1C(=O)N(Cc2ccc3ccccc3c2)c2ccccc21`, the IC50 in series [17] was found to be 0.32 µM.
As for `O=C(NCCc1ccc(N2CCOCC2)cc1)c1[nH]c2ccc(Cl)cc2c1CO`, in series [22], the midpoint of inhibition, the IC50, lay at 4.2 µM.
For `O=C1C2Cc3ccccc3N2[C@@H](c2ccc(O)c(O)c2)N1Nc1ccc([N+](=O)[O-])cc1` (some centres not stated), the CC50 at 72 h in series [5] was more than 100 µM. In [6], this compound registered an IC50 of 8.52 µM.
For `NS(=O)(=O)c1ccc(NC(=S)N/N=C2\C(=O)Nc3ccc(Br)cc32)cc1`, the EC50 in [7] amounted to 3 µM.
`Cc1ccc2c(c1)C(=O)C(=O)N2Cc1ccc2ccccc2c1`: the EC50 in series [23] and in series [24] was 6.8 µM each time.
For the compound `COP(=O)(c1cc(C)cc(OCC#N)c1)c1c(C(N)=O)[nH]c2ccc(Cl)cc12` (configuration not stated), the EC50 in [25] came to 0.08 nM.
On to `Cc1cncc(C#Cc2c[nH]c3ncc(-c4ccc(C(=O)NC5CC5)cc4)cc23)c1`, for which the 50% effective concentration (EC50) in [26] was 1.82 µM; in [27] it was 1.8 µM; in [28], 0.18 µM.
In [16], `CC1=NCCc2c1[nH]c1cc(O)ccc21` [HARMALOL] registered a half-maximal inhibitory concentration (IC50) of 0.02 µg/mL (≈ 0.0999 µM).
Regarding `NS(=O)(=O)c1ccc(NC(=S)N/N=C2\C(=O)Nc3ccc(OC(F)(F)F)cc32)cc1`, in series [7], the half-maximal effective concentration (EC50) came out at 2 µM.
As to `CCCCCCCCCCCCCCCCCc1nnc(SCCO)n1/N=C/c1cn(Cc2ccccc2)c2ccccc12`, the results for the IC50 in series [21] and in series [22] were 8.7 µM and 87.6 µM, respectively.
Take `CS(=O)(=O)Oc1ccc(C(=O)/C=C2/C(=O)Nc3ccccc32)cc1`: half-maximal inhibition in [8] (IC50) was put at 3.8 µM.
For `O=C(O)/C(O)=C/C(=O)c1cn(S(=O)(=O)C(=O)c2ccc(F)cc2)c2ccc(Br)cc12`, the IC50 in [18] came to 0.2 µM.
`COc1ccc2c3c([nH]c2c1)C(C)=NCC3` [HARMALINE] returned an IC50 in series [16] of 3.42 µg/mL (≈ 16 µM).
For `CCOC(=O)c1c(CSc2ccccc2)n(C)c2cc(Br)c(O)c(CN(C)C)c12` [UMIFENOVIR], in series [29], the CC50 at 72 h was determined as 32.3 µg/mL (≈ 67.7 µM). In [30], the IC50 amounted to 4.77 µg/mL (≈ 9.99 µM).
